Data: PubChem BioAssay AID1963964 (Molecular Pharmacology Branch, DTP, NCI, 2024)

Tested on: 997726-040-R-J2-PDC tumor spheroids, viability
Assay: Anticancer human tumor 997726-040-R-J2-PDC patient-derived squamous cell lung carcinoma cell line growth inhibition [PI3K]
Conditions: spheroids with HUVEC and MSC; for IC50: curve of first compound; for viability, T/C: stronger effect = lower value
From the text: Combinatorial screen of targeted agents with the PI3K inhibitors inavolisib, alpelisib, duvelisib, and copanlisib in multi-cell type tumor spheroids
A high-throughput screen of multi-cell type tumor spheroids was designed to identify active combinations of targeted small molecules and PI3K pathway inhibitors. Complex spheroids include a stromal component modeled by human endothelial cells (HUVEC) and fibroblasts modeled by human mesenchymal stem cells (MSCs). The concentration ranges selected for each drug and investigational agent were based upon clinically achievable concentrations if the clinical Cmax of the agent was known.
Compounds. The drugs and investigational agents: inavolisib (NSC800729), alpelisib (NSC765974), duvelisib (NSC772469), copanlisib (NSC816437), ipatasertib (NSC767898), afuresertib (NSC778305), talazoparib (NSC767125), sapanisertib (NSC764658), selumetinib (NSC741078), tovorafenib (DAY101, NSC766906), vemurafenib (NSC761431), ravoxertinib (NSC781343), sotorasib (NSC818433), MRTX1133 (NSC 836407), abemaciclib (NSC 768073), palbociclib (NSC758247), venetoclax (NSC 766270), SY5609 (NSC837396), enzalutamide (NSC755605), and darolutamide (NSC825331), were obtained from the National Cancer Institute (NCI) Developmental Therapeutics Program Chemical Repository. The FDA-approved anticancer drug set is available from the NCI Developmental Therapeutics Program. […] The stock solutions were prepared in dimethyl sulfoxide (DMSO, Sigma-Aldrich, St. Louis, MO, cat. D2650) at 800-fold the tested concentration and stored at -70 degrees C prior to their use. All drugs and investigational agents were tested over a range starting from a high concentration at or near the clinical Cmax and decreasing in half-log increments. If the clinical Cmax for an agent had not been determined, the highest concentration tested was 10 microM.
Cell Culture. All cells were maintained in an incubator at 37 degrees C and 5% CO2 with 95% humidity. The PDC lines were cultured according to standard operating procedures established by the NCI PDMR (https://pdmr.cancer.gov/sops/default.htm). All PDCs were thawed and cultured in Matrigel-coated flasks prepared with a working solution of 1X Ham's F-12 nutrient mix, without supplementation (Invitrogen, Waltham, MA, cat. 11765054), 100 U/mL penicillin-streptomycin (Invitrogen, cat. 15140122), and 2.5% Matrigel (Corning Inc., Corning, NY, cat. 354248) for the first three passages. The 354836-022-R-J1-PDC, 475296-252-R-J1-PDC, and 997726-040-R-J2-PDC lines were cultured in 6A media, which includes advanced DMEM/F-12 (Thermo Fisher Scientific, cat. 12634028), 10 mM HEPES (Thermo Fisher Scientific, cat. 15630080), 1X GlutaMAX supplement (Thermo Fisher Scientific, cat. 35050061), 0.1 mg/mL primocin (InvivoGen, San Diego, CA, cat. ant-pm-2), 10% defined fetal bovine serum, heat inactivated (HyClone Laboratories Inc., Logan, UT, cat. SH30070.03HI), 50% L-WRN conditioned media (ATCC, cat. CRL-3276), 1.25 mM N-Acetyl-L-cysteine (Sigma-Aldrich, cat. A9165), 10 mM nicotinamide (Sigma-Aldrich, cat. N0636), 1X B-27 supplement (Thermo Fisher Scientific, cat. 17504044), 1X N-2 supplement (Thermo Fisher Scientific, cat. 17502048), and 10 microM Y-27632 dihydrochloride (Tocris Bioscience, Bristol, United Kingdom, cat. 1254). The 624824-186-R-J2-PDC line was cultured in 6C/Colon 1B media, which includes all 6A media components plus 50 ng/mL human EGF recombinant protein (Thermo Fisher Scientific, cat. PHG0311). […]
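Further: spheroids exposed to compounds for seven days before readout.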

CC(C)NCC(C(=O)N1CCN(c2ncnc3c2C(C)CC3O)CC1)c1ccc(Cl)cc1 (configuration not stated) + CC(Nc1ncnc2nc[nH]c12)c1cc2cccc(Cl)c2c(=O)n1-c1ccccc1
IC50 (second compound 0.0316 µM): 388 nM | IC50 (second compound 0.1 µM): 400 nM | IC50 (second compound 0.316 µM): 398 nM | IC50 (second compound 1 µM): 297 nM | IC50 (second compound 3.16 µM): 278 nM | IC50 (second compound 10 µM): 55.6 nM | viability, T/C (second compound 0.0316 µM, first compound 0.0316 µM): 82.7% | viability, T/C (second compound 0.0316 µM, first compound 0.1 µM): 74.3% | viability, T/C (second compound 0.0316 µM, first compound 0.316 µM): 54.4% | viability, T/C (second compound 0.0316 µM, first compound 1 µM): 29.7% | viability, T/C (second compound 0.0316 µM, first compound 3.16 µM): 14.6% | viability, T/C (second compound 0.0316 µM, first compound 10 µM): 10.8% | viability, T/C (second compound 0.1 µM, first compound 0.0316 µM): 79.5% | viability, T/C (second compound 0.1 µM, first compound 0.1 µM): 85.4% | viability, T/C (second compound 0.1 µM, first compound 0.316 µM): 50.1% | viability, T/C (second compound 0.1 µM, first compound 1 µM): 31.6% | viability, T/C (second compound 0.1 µM, first compound 3.16 µM): 12.7% | viability, T/C (second compound 0.1 µM, first compound 10 µM): 10.7% | viability, T/C (second compound 0.316 µM, first compound 0.0316 µM): 87.1% | viability, T/C (second compound 0.316 µM, first compound 0.1 µM): 87.3% | viability, T/C (second compound 0.316 µM, first compound 0.316 µM): 53.1% | viability, T/C (second compound 0.316 µM, first compound 1 µM): 27.4% | viability, T/C (second compound 0.316 µM, first compound 3.16 µM): 15.5% | viability, T/C (second compound 0.316 µM, first compound 10 µM): 9.73% | viability, T/C (second compound 1 µM, first compound 0.0316 µM): 88.9% | viability, T/C (second compound 1 µM, first compound 0.1 µM): 69.2% | viability, T/C (second compound 1 µM, first compound 0.316 µM): 48.7% | viability, T/C (second compound 1 µM, first compound 1 µM): 32% | viability, T/C (second compound 1 µM, first compound 3.16 µM): 15% | viability, T/C (second compound 1 µM, first compound 10 µM): 9.4% | viability, T/C (second compound 3.16 µM, first compound 0.0316 µM): 80.1% | viability, T/C (second compound 3.16 µM, first compound 0.1 µM): 69.6% | viability, T/C (second compound 3.16 µM, first compound 0.316 µM): 46.3% | viability, T/C (second compound 3.16 µM, first compound 1 µM): 28.3% | viability, T/C (second compound 3.16 µM, first compound 3.16 µM): 15.3% | viability, T/C (second compound 3.16 µM, first compound 10 µM): 10.8% | viability, T/C (second compound 10 µM, first compound 0.0316 µM): 54.7% | viability, T/C (second compound 10 µM, first compound 0.1 µM): 42.8% | viability, T/C (second compound 10 µM, first compound 0.316 µM): 41.8% | viability, T/C (second compound 10 µM, first compound 1 µM): 27.3% | viability, T/C (second compound 10 µM, first compound 3.16 µM): 13.7% | viability, T/C (second compound 10 µM, first compound 10 µM): 9.38%
